Measurements: patent US9675605B2, “Substituted naphthyridine and quinoline compounds as MAO inhibitors” (DART NEUROSCIENCE (CAYMAN) LTD., priority 2013, dated 2017)

The compounds below were run against Human recombinant MAO-B (Homo sapiens (Human), UniProt P27338) (assay: MAO-B enzymatic assay (fluorometric, kynuramine)). Conditions: human recombinant MAO-B expressed in insect cells, 50 μm kynuramine, pH 7.4, 37° C.; values given as ranges; read-out: MAO-B (pEC50) (converted).
Sequence of Human recombinant MAO-B (P27338 whole entry): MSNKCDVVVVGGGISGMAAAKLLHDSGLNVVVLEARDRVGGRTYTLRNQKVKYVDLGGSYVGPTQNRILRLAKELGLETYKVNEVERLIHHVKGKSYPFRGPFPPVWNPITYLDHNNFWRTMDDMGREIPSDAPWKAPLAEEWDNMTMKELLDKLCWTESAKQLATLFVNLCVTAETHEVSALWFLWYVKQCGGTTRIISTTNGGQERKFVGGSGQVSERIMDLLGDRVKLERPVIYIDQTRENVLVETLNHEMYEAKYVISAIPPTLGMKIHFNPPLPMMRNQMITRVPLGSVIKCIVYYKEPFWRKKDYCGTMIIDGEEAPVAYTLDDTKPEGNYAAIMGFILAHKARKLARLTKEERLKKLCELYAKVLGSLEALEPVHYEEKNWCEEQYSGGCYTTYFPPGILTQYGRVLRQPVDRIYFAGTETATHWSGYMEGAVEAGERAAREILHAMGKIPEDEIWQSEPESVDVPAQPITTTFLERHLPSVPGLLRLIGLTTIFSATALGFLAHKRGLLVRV
Type: biochemical
Description: (§1) The MAO enzymatic assay was performed according to the fluorometric method described by Matsumoto and colleagues (Matsumoto et al., Clin. Biochem. 1985, 18, 126-129) with the following modifications. Human recombinant MAO-A and MAO-B expressed in insect cells were used. For both assays, test compound and/or vehicle were preincubated with purified enzyme in phosphate buffer pH 7.4 for 15 minutes at 37° C. The reaction was initiated by addition of […] kynuramine. Following a 60 minute incubation period, the reaction was terminated by the addition of 6 N NaOH. The amount of 4-hydroxyquinoline that formed was determined by spectrofluorimetrically at 325 nm/465 nm.
(§2) Results were converted to percent inhibition, and the EC50 (M) for each reaction was determined using the XLfit program from IDBS (ID Business Solutions Ltd., 2 Occam Court, Surrey Research Park, Guildford, Surrey, GU2 7QB UK). The EC50 represents the concentration of a compound where 50% of its maximal effect is observed. The pEC50 is defined as the negative logarithm of the EC50; a higher pEC50 value therefore corresponds to higher potency in the assay.
Representative compounds of the invention were evaluated in the MAO-B enzymatic assay. Typically, the compounds of the invention show MAO-B inhibitory properties at a concentration of 0.1 to 10 μM, typically at 5-100%.
For CCOC(=O)Cc1cnc2cc(OCc3cccc(Cl)c3)ccc2c1 [Example 51, Ethyl 2-(7-((3-chlorobenzyl)oxy)quinolin-3-yl)acetate], the EC50 was 100 to 1000 nM.

Each compound was assayed against Human recombinant MAO-A (Homo sapiens (Human), UniProt P21397) (assay: MAO enzymatic assay, MAO-B selectivity (MAO-A/MAO-B)). Conditions: selectivity for MAO-B over MAO-A; values given as ranges.
Sequence of Human recombinant MAO-A (P21397 whole entry): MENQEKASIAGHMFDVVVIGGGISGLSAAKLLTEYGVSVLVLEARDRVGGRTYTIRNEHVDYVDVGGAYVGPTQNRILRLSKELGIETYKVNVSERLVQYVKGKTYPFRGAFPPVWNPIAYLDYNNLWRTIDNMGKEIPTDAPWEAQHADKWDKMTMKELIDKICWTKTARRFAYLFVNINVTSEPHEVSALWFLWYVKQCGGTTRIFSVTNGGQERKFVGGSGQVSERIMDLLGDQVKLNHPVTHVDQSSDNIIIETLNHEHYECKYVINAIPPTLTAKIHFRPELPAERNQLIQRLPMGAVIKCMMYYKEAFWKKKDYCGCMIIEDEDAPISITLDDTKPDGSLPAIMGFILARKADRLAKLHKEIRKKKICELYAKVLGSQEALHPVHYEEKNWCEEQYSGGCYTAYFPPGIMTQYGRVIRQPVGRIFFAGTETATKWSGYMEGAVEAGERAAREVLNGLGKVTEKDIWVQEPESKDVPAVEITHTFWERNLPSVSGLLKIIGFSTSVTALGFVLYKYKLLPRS
Type: biochemical
Description: as §1, §2
CCOC(=O)c1cnc2cc(OCc3cc(F)c(F)c(F)c3)ccc2c1 [Example 16, Ethyl 7-((3,4,5-trifluorobenzyl)oxy)quinoline-3-carboxylate] showed an MAO-A/MAO-B of over 200.
Compound CCOC(=O)c1cnc2cc(OCc3cc(F)cc(F)c3)ccc2c1 [Example 15, Ethyl 7-((3,5-difluorobenzyl)oxy)quinoline-3-carboxylate] has an MAO-A/MAO-B of over 200.
In the case of CCOC(=O)c1cnc2cc(OCc3ccc(OC)cc3)ccc2c1 [Example 10, Ethyl 7-((4-methoxybenzyl)oxy)quinoline-3-carboxylate], the MAO-A/MAO-B is reported as >10-100.
With CCOC(=O)c1cnc2cc(OCc3ccc(C)cc3)ccc2c1 [Example 8, Ethyl 7-((4-methylbenzyl)oxy)quinoline-3-carboxylate] the MAO-A/MAO-B was >10-100.
For CCOC(=O)c1cnc2cc(OCc3cccc(C(F)(F)F)c3)ccc2c1 [Example 5, Ethyl 7-((3-(trifluoromethyl)benzyl)oxy)quinoline-3-carboxylate], the MAO-A/MAO-B was >100-200.
For CCOC(=O)c1cnc2cc(OCc3ccc(F)cc3)ccc2c1 [Example 2, Ethyl 7-[(4-fluorophenyl)methoxy]quinoline-3-carboxylate], the MAO-A/MAO-B was >100-200.
CCOC(=O)c1cnc2cc(OCc3ccc(C(F)(F)F)cc3)ccc2c1 [Example 6, Ethyl 7-((4-(trifluoromethyl)benzyl)oxy)quinoline-3-carboxylate] was tested, and the MAO-A/MAO-B was >10-100.
CCOC(=O)c1cnc2cc(OCc3ccc(F)c(C(F)(F)F)c3)ccc2c1 [Example 12, Ethyl 7-((4-fluoro-3-(trifluoromethyl)benzyl)oxy)quinoline-3-carboxylate] was tested, and the MAO-A/MAO-B was over 200.
For CCOC(=O)c1cnc2cc(OCc3cccc(OC)c3)ccc2c1 [Example 9, Ethyl 7-((3-methoxybenzyl)oxy)quinoline-3-carboxylate], the MAO-A/MAO-B was >100-200.
For CCOC(=O)c1cnc2cc(OCCc3cccc(F)c3)ccc2c1 [Example 24, Ethyl 7-(3-fluorophenethoxy)quinoline-3-carboxylate], the MAO-A/MAO-B was >10-100.
For CCOC(=O)c1cnc2cc(OCc3cc(F)cc(C(F)(F)F)c3)ccc2c1 [Example 13, Ethyl 7-((3-fluoro-5-(trifluoromethyl)benzyl)oxy)quinoline-3-carboxylate], the MAO-A/MAO-B was >100-200.
For CCOC(=O)c1cnc2cc(OCc3ccc(F)c(F)c3)ccc2c1 [Example 14, Ethyl 7-((3,4-difluorobenzyl)oxy)quinoline-3-carboxylate], the MAO-A/MAO-B was over 200.
With CCOC(=O)c1cnc2cc(OCc3cccc(F)c3)ccc2c1 [Example 4, Ethyl 7[(3-fluorophenyl)methoxy]quinoline-3-carboxylate] the MAO-A/MAO-B was 1-10.
CCOC(=O)c1cnc2cc(OCc3ccc(F)c(Cl)c3)ccc2c1 [Example 17, Ethyl 7-((3-chloro-4-fluorobenzyl)oxy)quinoline-3-carboxylate] was tested, and the MAO-A/MAO-B was >100-200.
In the case of CCOC(=O)c1cnc2cc(OCc3cccc(C)c3)ccc2c1 [Example 7, Ethyl 7-((3-methylbenzyl)oxy)quinoline-3-carboxylate], the MAO-A/MAO-B is reported as >100-200.
In the case of CCOC(=O)c1cnc2cc(OCc3cccc([N+](=O)[O-])c3)ccc2c1 [Example 18, Ethyl 7-((3-nitrobenzyl)oxy)quinoline-3-carboxylate], the MAO-A/MAO-B is reported as >10-100.
CCOC(=O)c1cnc2cc(OCCc3cccc(Cl)c3)ccc2c1 [Example 25, Ethyl 7-(3-chlorophenethoxy)quinoline-3-carboxylate] was tested, and the MAO-A/MAO-B was >10-100.
CC(C)(O)c1cnc2cc(OCc3ccc(F)cc3)ccc2c1 [Example 27, 2-(7-((4-Fluorobenzyl)oxy)quinolin-3-yl)propan-2-ol] was tested, and the MAO-A/MAO-B was over 200.
CCOC(=O)c1cnc2cc(OCc3cccc(Cl)c3)ccc2c1 [Example 3, Ethyl 7-[(3-chlorophenyl)methoxy]quinoline-3-carboxylate] was tested, and the MAO-A/MAO-B was >10-100.
With CCOC(=O)c1cnc2cc(OCc3ccc(Cl)cc3)ccc2c1 [Example 1, Ethyl 7-[(4-chlorophenyl)methoxy]quinoline-3-carboxylate] the MAO-A/MAO-B was >10-100.
For CCOC(=O)c1cnc2cc(OCc3ccc([N+](=O)[O-])cc3)ccc2c1 [Example 11, Ethyl 7-((4-nitrobenzyl)oxy)quinoline-3-carboxylate], the MAO-A/MAO-B was 1-10.
